Assay results published in US20120041006A1, “Compositions for Raising Uric Acid Levels and Methods of Using the Same” (priority 1998, published 2012).

What was measured:
[1] = Oral uric acid precursor in a person with Alzheimer's; type: in vivo, human; conditions: one Alzheimer's patient; 500-1,000 mg orally per day; upon raising uric acid levels
[2] = Chickens given allopurinol to lower uric acid; glycosylation damage; type: in vivo
Description: The following example was conducted to establish the role of uric acid in protecting against the sequelia associated with diabetic damage. It is established that this sequelia occurs in diabetic patients due to increases in sugar levels that result from either the insufficient production of insulin or the insufficient breakdown of sugar by the insulin, depending of the type of diabetes. Sugar, in excess conditions, can become an oxidizer, which leads to oxidative damage in a patient. Glycosylated hemoglobin (HBA1C) is used to measure the amount of oxidative damage that results from excess sugar in a patient; increased (HBA1C) is the definition used for diabetes. […] Chickens are known to have excessively high sugar levels, and should be essentially in a diabetic state. […] To confirm the causal relationship between high levels of uric acid and prevention of glycosylation damage, chickens were given allopurinol. This compound specifically […].

Row | Compound | Alzheimer symptoms (not recognizing bathroom, incontinence, general cognitive decline) [1] | signs of diabetic complications ([2]; after uric acid reduced to below normal levels) | uric acid levels ([2]; enough administered to effect significant conversion of uric acid) | levels of the chicken equivalent of A1C (glycosylated hemoglobin) ([2]; once uric acid reduced to below normal levels)
1 | O=c1[nH]cnc2nc[nH]c12 [hypoxanthine] | reduced |  |  | 
2 | OC[C@H]1O[C@@H](n2cnc3c(O)ncnc32)[C@H](O)[C@@H]1O [inosine] | reduced |  |  | 
3 | Oc1ncnc2[nH]ncc12 [allopurinol] |  | exhibited signs of diabetic complications | lowering of uric acid levels | increased dramatically
